From paper PMC7155171, “Probing the Open Global Health Chemical Diversity Library for Multistage-Active Starting Points for Next-Generation Antimalarials” (ACS Infectious Diseases, 2020)

Key:
[1] = system: P. berghei liver stage (PbLuc); assay: P. berghei luciferase liver stage (PbLuc) assay in HepG2-A16-CD81 hepatocytes; assay type: cell-based, Plasmodium berghei; conditions: Plasmodium berghei; for IC50: HepG2-A16-CD81, 12pt dose response, read-out: PbLuc 12pt dose response: IC50; for Emax: HepG2-A16-CD81, 48 h, 12pt dose response, maximum inhibition
[2] = HepG2 cytotoxicity screening (CellTiter-Glo); conditions: human, uninfected HepG2-A16-CD81 (EGFP) hepatocytes
[3] = system: HepG2-A16-CD81 hepatocytes; assay: HepG2 cytotoxicity screening (CellTiter-Glo); conditions: for HepG2 cytotoxicity 12pt dose response: Maximum inhibition (%): 12pt dose response
[4] = biological target: recombinant firefly luciferase (Photinus pyralis, UniProt P08659); assay: biochemical; conditions: dose response; for Emax: maximum inhibition, read-out: rLuc inhibition dose response: Maximum inhibition (%); for IC50: read-out: rLuc inhibition dose response: IC50
Chain of recombinant firefly luciferase (P08659 whole entry): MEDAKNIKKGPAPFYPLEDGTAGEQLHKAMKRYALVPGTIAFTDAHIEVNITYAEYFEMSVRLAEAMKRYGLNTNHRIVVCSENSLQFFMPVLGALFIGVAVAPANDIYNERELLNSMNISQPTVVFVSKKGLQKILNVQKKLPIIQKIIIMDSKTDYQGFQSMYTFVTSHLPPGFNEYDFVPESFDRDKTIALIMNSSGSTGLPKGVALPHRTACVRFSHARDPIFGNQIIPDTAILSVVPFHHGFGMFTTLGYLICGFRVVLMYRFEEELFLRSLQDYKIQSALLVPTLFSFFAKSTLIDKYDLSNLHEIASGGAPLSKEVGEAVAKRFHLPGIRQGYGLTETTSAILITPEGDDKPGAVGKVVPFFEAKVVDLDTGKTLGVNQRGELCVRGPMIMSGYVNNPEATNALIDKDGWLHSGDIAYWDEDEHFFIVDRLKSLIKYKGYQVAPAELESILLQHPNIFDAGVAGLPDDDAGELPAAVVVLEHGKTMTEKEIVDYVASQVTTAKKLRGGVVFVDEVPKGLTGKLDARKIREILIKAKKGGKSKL

Structure (SMILES)	IC50 [1]	IC50 [2]	HepG2 Cytotoxicity primary screen (2uM): % Inhibition [3]	HepG2 cytotoxicity 12pt dose response: Maximum inhibition (%) [3]	Emax [4]	IC50 [4]	Emax [1]	inhibition at 2 µM [2]
CCNc1ccnc(CN2CCCC2C(=O)Nc2nccs2)c1 (stereo not shown) [UCSD-0809356]	4.46 µM	> 25 µM	1.30%	2.09%	21.2%	> 25 µM		
CC(C(=O)Nc1sccc1C(N)=O)N(C)CCOc1ccccc1 (stereo not shown) [UCSD-0809872]	0.787 µM	> 25 µM		7.13%	17.7%	> 50 µM	95.7%	5.59%
CC(C)(C)n1ncc2c1CCCC2NCc1ccc2c(c1)OCCO2 (stereo not shown) [UCSD-0811309]	8.69 µM	> 25 µM		2.92%	85%	15 µM	87%	-4.43%
NC(=O)c1ccc(N2CCCCC2)c(NC(=O)c2ccc(F)cc2F)c1 [UCSD-0811362]	8.87 µM	> 25 µM		5.59%	19.1%	> 25 µM	81%	2.8%
Cc1cn2c(n1)C(CNCC1=Cc3ccccc3OC1)CCC2 (stereo not shown) [UCSD-0812993]	> 2.78 µM	> 25 µM	-0.92%	24.6%	66.8%	> 25 µM	93.1%	
Cc1nc(C(=O)NC2CCN(CCOc3ccc(Br)cc3)CC2)cs1 [UCSD-0818164]	13.6 µM	> 25 µM	17.63%	35.2%	32.1%	> 25 µM	98.3%	
Cc1ncc(C(=O)NC2CCN(CCOc3ccc(Br)cc3)CC2)s1 [UCSD-0818166]	15.8 µM	> 25 µM		7.96%	32.8%	> 25 µM	96.5%	1.78%
CN1CCOC(C(=O)Nc2ccc3c(c2)nc(C(C)(C)C)n3C)C1 (stereo not shown) [UCSD-0818200]	0.00222 µM	> 25 µM		0.658%	88.4%	13.4 µM		
N#Cc1c(Cl)nsc1NCC1(c2ccccc2)CCC1 [UCSD-0818294]	13.2 µM	> 25 µM	11.95%	34.3%	16.9%	> 25 µM	98.3%	
O=C(CN1CCCC(c2ccn[nH]2)C1)Nc1nc2c(s1)CCCC2 (stereo not shown) [UCSD-0818422]	4.53 µM	> 25 µM	7.13%	8.88%	6.65%	> 25 µM	95.9%	
O=C(c1ccc(Br)o1)N1CCN(Cc2ccc(OC(F)(F)F)cc2)CC1 [UCSD-0819339]	9.24 µM	> 25 µM		57.1%	10.9%	> 25 µM	97.7%	0%
CCc1nc(CN2CCN(c3ncnc4cc(F)ccc34)CC2)no1 [UCSD-0819439]	2.76 µM	6.37 µM		64.7%	3.14%	> 25 µM	95.7%	13.2%
COc1ccc(-c2nc(CN3CC(n4cc(C)cn4)C3)no2)cc1 [UCSD-0819446]	11.2 µM	> 25 µM	-12.79%	1.19%	6.87%	> 25 µM	82.5%	
CC(NC(=O)c1cc(-c2cccc(Cl)c2)no1)C(=O)N1CCCC1 (stereo not shown) [UCSD-0819519]	11 µM	> 25 µM	0.00%	0.675%	37.2%	> 25 µM	91.8%	
CC(=O)c1c(F)cccc1N1CCC(Cc2cccnc2)CC1 [UCSD-0819611]	4.23 µM	15.4 µM		73%	7.02%	> 25 µM	116%	15.8%
COc1cc(CN(C)C(=O)Cc2c(C)nn(C)c2C)ccc1OC(F)F [UCSD-0819780]	2.11 µM	> 25 µM		55.1%	6.77%	> 25 µM	80.1%	7.57%
